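Growth conditions: 96-well plates. Treatment: test compound, 48 hours, 5 concentrations. Analysis: linear interpolation between bracketing concentrations; unreached endpoints set to highest concentration. GI50: concentration for 50% inhibition of growth.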 Activity calls are given as the source filed them. No stated cut-off is given here; in the data, active = GI50 up to about 1.1 µM and inactive = higher.
Assays:
Assay in all cases: DTP human tumour cell line panel, 48 h
A549 = system: A549
ACHN = system: ACHN
HCC 2998 = system: HCC 2998
HCT-116 = system: HCT-116
HOP-92 = system: HOP-92
IGROV-1 = system: IGROV-1
M14 = system: M14
NCI-H522 = system: NCI-H522
OVCAR-8 = system: OVCAR-8
RXF 393 = system: RXF 393
SK-MEL-28 = system: SK-MEL-28
SK-MEL-5 = system: SK-MEL-5
SNB-19 = system: SNB-19
TK-10 = system: TK-10
UACC-257 = system: UACC-257
UO-31 = system: UO-31
DU-145 = system: DU-145
MDA-MB-435 = system: MDA-MB-435
PC-3 = system: PC-3

Measured: GI50

COc1ccc(OCC(=O)O)c2c1CCCC2=O
inactive: A549 > 100 µM | ACHN > 100 µM | HCC 2998 > 100 µM | HCT-116 > 100 µM | HOP-92 > 100 µM | IGROV-1 > 100 µM | M14 > 100 µM | NCI-H522 > 100 µM | OVCAR-8 > 100 µM | RXF 393 > 100 µM | SK-MEL-28 > 100 µM | SK-MEL-5 > 100 µM | SNB-19 > 100 µM | TK-10 > 100 µM | UACC-257 > 100 µM | UO-31 > 100 µM

O=C(NC12CC3CC(CC(C3)C1)C2)C(=O)c1c[nH]c2ccc(Br)cc12
inactive: A549 14.4 µM | ACHN 15.6 µM | HCC 2998 22.6 µM | HCT-116 14.6 µM | HOP-92 20.8 µM | IGROV-1 45.5 µM | M14 7.05 µM | NCI-H522 56 µM | OVCAR-8 18.1 µM | RXF 393 2.43 µM | SK-MEL-28 43.1 µM | SK-MEL-5 41 µM | SNB-19 33.5 µM | TK-10 28.8 µM | UACC-257 43.4 µM | UO-31 26.2 µM

CCOC(=O)/C(=C\n1c(=O)sc2ccccc21)C(=O)c1ccccc1
inactive: A549 > 100 µM | ACHN > 100 µM | DU-145 > 100 µM | HCC 2998 > 100 µM | HCT-116 > 100 µM | IGROV-1 20 µM | M14 > 100 µM | MDA-MB-435 > 100 µM | NCI-H522 48 µM | OVCAR-8 > 100 µM | PC-3 > 100 µM | RXF 393 > 100 µM | SK-MEL-28 > 100 µM | SK-MEL-5 54.2 µM | UACC-257 > 100 µM | UO-31 26 µM

COC(=O)/C=C/C1C2C3(CCC(C)C12C)OCCS3 (configuration not stated)
inactive: A549 > 100 µM | ACHN > 100 µM | HCC 2998 > 100 µM | HCT-116 > 100 µM | HOP-92 > 100 µM | IGROV-1 > 100 µM | M14 > 100 µM | NCI-H522 > 100 µM | OVCAR-8 > 100 µM | RXF 393 > 100 µM | SK-MEL-28 > 100 µM | SK-MEL-5 > 100 µM | SNB-19 > 100 µM | TK-10 > 100 µM | UACC-257 > 100 µM | UO-31 > 100 µM

COC(=O)C12C3C4C5C3(C#N)C1C5(C(=O)OC)C42C(=O)N(C(C)C)C(C)C (configuration not stated)
inactive: A549 > 100 µM | ACHN > 100 µM | HCC 2998 > 96.6 µM | HCT-116 39.9 µM | HOP-92 > 100 µM | IGROV-1 > 100 µM | M14 > 100 µM | NCI-H522 > 33.4 µM | OVCAR-8 > 63 µM | RXF 393 > 100 µM | SK-MEL-28 > 100 µM | SK-MEL-5 > 100 µM | SNB-19 > 100 µM | TK-10 > 100 µM | UACC-257 > 100 µM | UO-31 > 100 µM

O=c1c(-c2ccccc2)c(O)nc2[nH]c3ccccc3n12
inactive: A549 > 100 µM | ACHN > 100 µM | HCC 2998 > 100 µM | HCT-116 > 100 µM | HOP-92 > 100 µM | IGROV-1 > 100 µM | M14 > 100 µM | NCI-H522 > 100 µM | OVCAR-8 > 100 µM | RXF 393 > 100 µM | SK-MEL-28 > 100 µM | SK-MEL-5 > 100 µM | SNB-19 > 100 µM | TK-10 > 100 µM | UACC-257 > 100 µM | UO-31 > 100 µM

CCN(CC)CCNc1ccc2nnn3c4ccccc4c(=O)c1c23
inactive: A549 3.59 µM | ACHN 3.24 µM | HCC 2998 7.31 µM | HCT-116 4.44 µM | HOP-92 2.48 µM | IGROV-1 6.98 µM | M14 3.86 µM | NCI-H522 4.75 µM | OVCAR-8 3.15 µM | RXF 393 6.21 µM | SK-MEL-28 4.65 µM | SK-MEL-5 3.08 µM | SNB-19 5.74 µM | TK-10 4.39 µM | UACC-257 4.48 µM | UO-31 4.46 µM
